Measured values from patent EP4603105A1, “PHARMACEUTICAL COMPOSITION CONTAINING CYCLIC COMPOUND HAVING SELECTIVE KRAS INHIBITORY EFFECT AGAINST HRAS AND NRAS” (CHUGAI SEIYAKU KABUSHIKI KAISHA, priority 2022, dated 2024).
Read-outs that look alike come from different tables or passages of the source. *1 amine or outer side, *2 acyl side, *3 side chain or, on linkers, in order; H or OH if unused. Where a SMILES comes first, the peptide text is derived from it. Bridges are numbered along the chain shown (N, C = ends). [ ]: non-standard residue; d: D form. The star is where a group is joined. hPhe(3,5-F2-4-CF3) = N[C@@H](CCc1cc(F)c(C(F)(F)F)c(F)c1)C(=O)O; hPhe(3-Cl-4-CF3) = N[C@@H](CCc1ccc(C(F)(F)F)c(Cl)c1)C(=O)O; NPrPhe(4-CF3) = CCCN[C@@H](Cc1ccc(C(F)(F)F)cc1)C(=O)O; X26 = CCCN([C@@H](Cc1ccc(F)cc1)C(=O)[*:2])[*:1]; X36 = CN([C@@H](CCCC=[*:3])C(=O)[*:2])[*:1]; dαMeAlg = C[C@](CC=[*:3])(N[*:1])C(=O)[*:2]; NMeGly(cPent) = CN[C@H](C(=O)O)C1CCCC1; Hyp = O=C(O)[C@@H]1C[C@@H](O)CN1; NMeD = CN[C@@H](CC(=O)O)C(=O)O; NMeL = CN[C@@H](CC(C)C)C(=O)O; αMeV = CC(C)[C@](C)(N)C(=O)O; Morpholide = C1CN(*)CCO1; NMeA = CN[C@@H](C)C(=O)O; Ac5c = NC1(C(=O)O)CCCC1; Aze = O=C(O)[C@@H]1CCN1; Sar = CNCC(=O)O

Assays:
[1] = target: GDP-bound NRAS wild-type protein (Homo sapiens, UniProt P01111); test: Binding to NRAS by surface plasmon resonance (SPR), KD and KD ratio to KRAS
Summary of the method: (§1)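 Biotinylated GDP-bound RAS was captured at about 100–300 RU. Running buffer: HBS pH 7.4, 10 mM MgCl2, 10 µM GDP, 1 mM DTT, 0.01% Tween 20, 4% DMSO.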

[2] = test system: human lung cancer strain NCI-H441; format: cell-based
Summary of the method: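 Step one: dispense the test compound in serial DMSO dilutions. Step three: add the reagent and measure […].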

HRAS wild-type protein = HRAS wild-type protein (Homo sapiens, UniProt P01112); test: Binding to HRAS by surface plasmon resonance (SPR), KD and KD ratio to KRAS
Summary of the method: as §1

[3] = ratio of KD for GDP-bound NRAS wild-type protein to KD for KRAS
[4] = ratio of KD for HRAS wild-type protein to KD for KRAS
[5] = ratio of the KD value with respect to GDP-bound NRAS wild-type protein to the KD value with respect to KRAS
[6] = ratio of the KD value with respect to HRAS wild-type protein to the KD value with respect to KRAS

Chain of HRAS wild-type protein (P01112 whole entry): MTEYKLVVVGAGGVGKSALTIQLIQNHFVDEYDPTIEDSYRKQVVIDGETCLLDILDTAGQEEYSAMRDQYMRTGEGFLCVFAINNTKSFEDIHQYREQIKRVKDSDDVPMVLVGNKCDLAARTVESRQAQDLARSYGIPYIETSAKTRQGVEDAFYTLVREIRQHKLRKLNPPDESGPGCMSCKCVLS
Chain of GDP-bound NRAS wild-type protein (P01111 whole entry): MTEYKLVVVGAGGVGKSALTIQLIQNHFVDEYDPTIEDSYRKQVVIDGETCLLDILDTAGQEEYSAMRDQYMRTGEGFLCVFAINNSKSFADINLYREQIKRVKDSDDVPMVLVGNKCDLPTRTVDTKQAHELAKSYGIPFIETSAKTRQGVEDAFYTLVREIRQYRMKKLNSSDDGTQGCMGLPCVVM

IC50 [2] [nM]	Compound	NRAS /KRAS [1, 3]	HRAS /KRAS (HRAS wild-type protein; [4])	NRAS /KRAS [1, 5]	HRAS /KRAS (HRAS wild-type protein; [6])	IC50 ([2]; NCI-H441 cells, 4 days, CellTiter-Glo, read-out: NCl-H441 IC50) [nM]	NRAS /KRAS ([1]; ratio of KD value for GDP-bound NRAS wild-type protein to KD value for KRAS (SPR))	HRAS /KRAS (HRAS wild-type protein; ratio of KD value for HRAS wild-type protein to KD value for KRAS (SPR))
22.4	CCO[C@@H]1C[C@H]2C(=O)NC3(CCC3)C(=O)N(C)[C@@H](C3CCCCC3)C(=O)N(C)[C@H](C(=O)N(C)C)CC(=O)N(C)[C@@H](CC)C(=O)N[C@@H]([C@@H](C)CC)C(=O)N(C)CC(=O)N(C)[C@H]3C/C=C\CCN(C3=O)[C@@H](Cc3ccc(C(F)(F)F)cc3)C(=O)N(C)CC(=O)N[C@@H](CCc3cc(F)c(C(F)(F)F)c(F)c3)C(=O)N2C1 [PP1086]	AA (a compound having 20 or more is denoted as AA)	A (a compound having 10 or more and less than 20 is denoted as A)	–	–	–	–	–
18.7	CCC[C@H]1C(=O)N[C@@H]([C@@H](C)CC)C(=O)N(C)CC(=O)N(C)[C@H]2C/C=C\CCN(C2=O)[C@@H](Cc2ccc(C(F)(F)F)cc2)C(=O)N(C)CC(=O)N[C@@H](CCc2ccc(C(F)(F)F)c(Cl)c2)C(=O)N2CC3(CC3)C[C@H]2C(=O)NC2(CC(C)(C)C2)C(=O)N(C)[C@@H]([C@@H](C)CC)C(=O)N(C)[C@H](C(=O)N(C)C)CC(=O)N1C [PP2983]	AA (a compound having 20 or more is denoted as AA)	A (a compound having 10 or more and less than 20 is denoted as A)	–	–	–	–	–
2.2	CCCN1C(=O)[C@@H]2CCN2C(=O)[C@H](C)N(C)C(=O)[C@H]([C@@H](C)CC)NC(=O)[C@H](CC(C)C)N(C)C(=O)C[C@@H](C(=O)N2CCOCC2)N(C)C(=O)[C@H](C2CCCC2)N(C)C(=O)C2(CCCC2)NC(=O)[C@@H]2CCCN2C(=O)[C@H](CCc2ccc(C(F)(F)F)c(Cl)c2)NC(=O)CN(C)C(=O)[C@@H]1Cc1ccc(F)cc1 [PP0219] ([NMeL]I[NMeA][Aze][X26][Sar][hPhe(3-Cl-4-CF3)]P[Ac5c][NMeGly(cPent)][NMeD]-Morpholide; lactam N-11)	C (A compound having a KD ratio of 0.1 or more and less than 3 is denoted as C)	B (a compound having 3 or more and less than 10 is denoted as B)	–	–	–	–	–
387	CCO[C@@H]1C[C@H]2C(=O)NC3(CCCC3)C(=O)N(C)[C@@H](C3CCCC3)C(=O)N(C)[C@H](C(=O)N3CCOCC3)CC(=O)N(C)[C@@H](CC)C(=O)N[C@@H]([C@@H](C)CC)C(=O)N(C)CC(=O)N(C)[C@H]3CC(C)=CCN(C3=O)[C@@H](Cc3ccc(C(F)(F)F)cc3)C(=O)N(C)CC(=O)N[C@@H](CCc3cc(F)c(C(F)(F)F)c(F)c3)C(=O)N2C1 [PP1043]	C (A compound having a KD ratio of 0.1 or more and less than 3 is denoted as C)	C (A compound having a KD ratio of 0.1 or more and less than 3 is denoted as C)	–	–	–	–	–
185	CCO[C@@H]1C[C@H]2C(=O)NC3(CCC3)C(=O)N(C)[C@@H](C3CCCC3)C(=O)N(C)[C@H](C(=O)N(C)C)CC(=O)N(C)[C@@H](COC)C(=O)N[C@@H]([C@@H](C)CC)C(=O)N3CC[C@H]3C(=O)N(C)[C@H]3CCCCCN(C3=O)[C@@H](Cc3ccc(C(F)(F)F)cc3)C(=O)N(C)CC(=O)N[C@@H](CCc3cc(F)c(C(F)(F)F)c(F)c3)C(=O)N2C1 [PP0864]	B (a compound having 3 or more and less than 10 is denoted as B)	B (a compound having 3 or more and less than 10 is denoted as B)	–	–	–	–	–
40.9	CCCN1C(=O)CN(C)C(=O)CN(C)C(=O)[C@H]([C@@H](C)CC)NC(=O)[C@H](CC(C)C)N(C)C(=O)C[C@@H](C(=O)N(C)C)N(C)C(=O)[C@H](C2CCCC2)N(C)C(=O)[C@](C)(C(C)C)NC(=O)[C@@H]2CCCN2C(=O)[C@H](CCc2cc(F)c(C(F)(F)F)c(F)c2)NC(=O)CN(C)C(=O)[C@@H]1Cc1ccc(C(F)(F)F)cc1 [PP0735] ([NMeL]I[Sar][Sar][NPrPhe(4-CF3)][Sar][hPhe(3,5-F2-4-CF3)]P[αMeV][NMeGly(cPent)][NMeD]-NMe2; lactam N-11)	–	–	B (a compound having 3 or more and less than 10 is denoted as B)	C (A compound having a KD ratio of 0.1 or more and less than 3 is denoted as C)	–	–	–
1.5	CCC[C@H]1C(=O)N[C@@H]([C@@H](C)CC)C(=O)N(C)CC(=O)N(C)[C@H]2C/C=C\CCN(C2=O)[C@@H](Cc2ccc(C)cc2)C(=O)N(C)CC(=O)N[C@@H](CCc2cc(F)c(C(F)(F)F)c(F)c2)C(=O)N2C[C@H](OCC)C[C@H]2C(=O)N(C)C2(CCC2)C(=O)N(C)[C@@H](C2CCCC2)C(=O)N(C)[C@H](C(=O)N2CCCC2)CC(=O)N1C [PP3121]	A (a compound having 10 or more and less than 20 is denoted as A)	A (a compound having 10 or more and less than 20 is denoted as A)	–	–	–	–	–
5.4	C=CCN1CC(=O)N(C)[C@H]2C/C=C\CCN(C2=O)[C@@H](Cc2ccc(C)cc2)C(=O)N(C)CC(=O)N[C@@H](CCc2cc(F)c(C(F)(F)F)c(F)c2)C(=O)N2C[C@H](OCC)C[C@H]2C(=O)NC2(CC(C)(C)C2)C(=O)N(C)[C@@H](C2CCCC2)C(=O)N(C)[C@H](C(=O)N(C)C)CC(=O)N(C)[C@@H](CCC)C(=O)N[C@@H]([C@@H](C)CC)C1=O [PP2094]	–	–	A (a compound having 10 or more and less than 20 is denoted as A)	A (a compound having 10 or more and less than 20 is denoted as A)	–	–	–
–	CCC[C@H]1C(=O)N[C@@H]([C@@H](C)CC)C(=O)N(C)CC(=O)N(C)[C@H]2C/C=C\CCN(C2=O)[C@@H](Cc2ccc(C(F)(F)F)cc2)C(=O)N(C)CC(=O)N[C@@H](CCc2cc(F)c(C(F)F)c(OC)c2)C(=O)N2C[C@H](OCC)C[C@H]2C(=O)NC2(CC(C)(C)C2)C(=O)N(C)[C@@H](C2CCCC2)C(=O)N(C)[C@H](C(=O)N(C)C)CC(=O)N1C [PP2867]	A (a compound having 10 or more and less than 20 is denoted as A)	A (a compound having 10 or more and less than 20 is denoted as A)	–	–	17.1	–	–
20.6	CCC[C@H]1C(=O)N[C@@H](C2CCCCC2)C(=O)N(C)CC(=O)N(C)[C@H]2C/C=C\CCN(C2=O)[C@@H](Cc2ccc(C(F)(F)F)cc2)C(=O)N(C)CC(=O)N[C@@H](CCc2ccc(C(F)(F)F)c(Cl)c2)C(=O)N2C[C@H](OCC)C[C@H]2C(=O)NC2(CC(C)(C)C2)C(=O)N(C)[C@@H](CC(C)(C)C)C(=O)N(C)[C@H](C(=O)N(C)C)CC(=O)N1C [PP3014]	AA (a compound having 20 or more is denoted as AA)	A (a compound having 10 or more and less than 20 is denoted as A)	–	–	–	–	–
332	CCCN1C(=O)CN(C)C(=O)CN(C)C(=O)[C@H]([C@@H](C)CC)NC(=O)[C@@H]2CCCC=CC[C@@](C)(NC(=O)[C@@H]3C[C@@H](OCC)CN3C(=O)[C@H](CCc3cc(F)c(C(F)(F)F)c(F)c3)NC(=O)CN(C)C(=O)[C@@H]1Cc1ccc(C(F)(F)F)cc1)C(=O)N(C)[C@@H](C1CCCC1)C(=O)N(C)[C@H](C(=O)N1CCOCC1)CC(=O)N2C [PP0901] ([X36]I[Sar][Sar][NPrPhe(4-CF3)][Sar][hPhe(3,5-F2-4-CF3)][Hyp](Et)[dαMeAlg][NMeGly(cPent)][NMeD]-Morpholide; staple 1-9; lactam N-11)	B (a compound having 3 or more and less than 10 is denoted as B)	B (a compound having 3 or more and less than 10 is denoted as B)	–	–	–	–	–
79.3	CCC[C@H]1C(=O)N[C@@H]([C@@H](C)CC)C(=O)N(C)CC(=O)N(C)[C@H]2C/C=C\CCN(C2=O)[C@@H](Cc2ccc(C(F)(F)F)cc2)C(=O)N(C)CC(=O)N[C@@H](CCc2cc(F)c(C(F)(F)F)c(F)c2)C(=O)N(CC)CC(=O)NC2(CC(C)(C)C2)C(=O)N(C)[C@@H](C2CCCC2)C(=O)N(C)[C@H](C(=O)N(C)C)CC(=O)N1C [PP1777]	–	–	–	–	–	A (a compound having 10 or more and less than 20 is denoted as A)	B (a compound having 3 or more and less than 10 is denoted as B)
194	CCO[C@@H]1C[C@H]2C(=O)NC3(CCC(F)(F)CC3)C(=O)N(C)[C@@H](C3CCCC3)C(=O)N(C)[C@H](C(=O)N(C)C)CC(=O)N(C)[C@@H](C)C(=O)N[C@@H]([C@@H](C)CC)C(=O)N(C)CC(=O)N(C)[C@H]3CCCCCN(C3=O)[C@@H](Cc3ccc(C(F)(F)F)cc3)C(=O)N(C)CC(=O)N[C@@H](CCc3cc(F)c(C(F)(F)F)c(F)c3)C(=O)N2C1 [PP0725]	–	–	B (a compound having 3 or more and less than 10 is denoted as B)	B (a compound having 3 or more and less than 10 is denoted as B)	–	–	–
2.2	CCC[C@H]1C(=O)N[C@@H]([C@@H](C)CC)C(=O)N(C2CC2)CC(=O)N(C)[C@H]2C/C=C\CCN(C2=O)[C@@H](Cc2ccc(C)cc2)C(=O)N(C)CC(=O)N[C@@H](CCc2ccc(C(F)(F)F)c(OC)c2)C(=O)N2C[C@H](OCC)C[C@H]2C(=O)N(C)C2(CCC2)C(=O)N(C)[C@@H](C2CCCC2)C(=O)N(C)[C@H](C(=O)N(C)C)CC(=O)N1C [PP2328]	–	–	A (a compound having 10 or more and less than 20 is denoted as A)	A (a compound having 10 or more and less than 20 is denoted as A)	–	–	–

Compound	IC50 [2] [nM]	NRAS /KRAS [1, 3]	HRAS /KRAS (HRAS wild-type protein; [4])	NRAS /KRAS [1, 5]	HRAS /KRAS (HRAS wild-type protein; [6])	IC50 ([2]; NCI-H441 cells, 4 days, CellTiter-Glo, read-out: NCl-H441 IC50) [nM]	NRAS /KRAS ([1]; ratio of KD value for GDP-bound NRAS wild-type protein to KD value for KRAS (SPR))	HRAS /KRAS (HRAS wild-type protein; ratio of KD value for HRAS wild-type protein to KD value for KRAS (SPR))
CCC[C@H]1C(=O)N[C@@H]([C@@H](C)CC)C(=O)N2CCC[C@H]2C(=O)N(C)[C@H]2C/C=C\CCN(C2=O)[C@@H](Cc2ccc(C)cc2)C(=O)N(C)CC(=O)N[C@@H](CCc2ccc(C(F)(F)F)c(OC)c2)C(=O)N2C[C@H](OCC)C[C@H]2C(=O)N(C)C2(CCC2)C(=O)N(C)[C@@H](C2CCCC2)C(=O)N(C)[C@H](C(=O)N2CCCCC2)CC(=O)N1C [PP3100]	15	A (a compound having 10 or more and less than 20 is denoted as A)	B (a compound having 3 or more and less than 10 is denoted as B)	–	–	–	–	–
